Reference: US20100311714A1, “1H-IMIDAZO[4,5-c]QUINOLINONE COMPOUNDS” (priority 2009, published 2010)

Test system: PKB Ser473 phosphorylation in Rat1-myr-HA-p110 beta cells
Assay: Reverse protein array, PKB Ser473 phosphorylation in Rat1-myr-HA-p110 beta cells
Format: cell-based
Conditions: Rattus norvegicus, 0.5 h, 30 minutes compound incubation, read-out: p-PKB/IC50_beta

| Structure (SMILES) | IC50 |
| --- | --- |
| COc1ccc(-c2ccc3ncc4c(c3c2)n(-c2cccnc2)c(=O)n4C)cc1OC [Example 5.2, 8-(3,4-Dimethoxy-phenyl)-3-methyl-1-pyridin-3-yl-1,3-dihydro-imidazo[4,5-c]quinolin-2-one] | 50.3 nM |
| CNC(=O)c1cc(-c2ccc3ncc4c(c3c2)n(-c2ccc(F)nc2C)c(=O)n4C)cnc1N [Example 7.14, 2-Amino-5-[1-(6-fluoro-2-methyl-pyridin-3-yl)-3-methyl-2-oxo-2,3-dihydro-1H-imidazo[4,5-c]quinolin-8-yl]-N-methyl-nicotinamide] | 50.6 nM |
| COc1ccc(-c2ccc3ncc4c(c3c2)n(-c2cccnc2)c(=O)n4C)cn1 [Example 5.4, 8-(6-Methoxy-pyridin-3-yl)-3-methyl-1-pyridin-3-yl-1,3-dihydro-imidazo[4,5-c]quinolin-2-one] | 152 nM |
| Cc1cccnc1-n1c(=O)n(C)c2cnc3ccc(-c4cnc5ccccc5c4)cc3c21 [Example 3.8, 3-Methyl-1-(3-methyl-pyridin-2-yl)-8-quinolin-3-yl-1,3-dihydro-imidazo[4,5-c]quinolin-2-one] | 108 nM |
| COc1ccc(-c2ccc3ncc4c(c3c2)n(-c2ncccc2C)c(=O)n4C)cn1 [Example 3.13, 8-(6-Methoxy-pyridin-3-yl)-3-methyl-1-(3-methyl-pyridin-2-yl)-1,3-dihydro-imidazo[4,5-c]quinolin-2-one] | 945 nM |
| CNc1ncc(-c2ccc3ncc4c(c3c2)n(-c2ccc(F)nc2C)c(=O)n4C)cc1F [Example 7.12, 8-(5-Fluoro-6-methylamino-pyridin-3-yl)-1-(6-fluoro-2-methyl-pyridin-3-yl)-3-methyl-1,3-dihydro-imidazo[4,5-c]quinolin-2-one] | 13.5 nM |
| COc1ncccc1-n1c(=O)n(C)c2cnc3ccc(-c4ccc(F)nc4)cc3c21 [Example 1.8, 8-(6-Fluoro-pyridin-3-yl)-1-(2-methoxy-pyridin-3-yl)-3-methyl-1,3-dihydro-imidazo[4,5-c]quinolin-2-one] | 324 nM |
| CNc1ncc(-c2ccc3ncc4c(c3c2)n(-c2ccc(F)nc2C)c(=O)n4C)cc1C(F)(F)F [Example 7.13, 1-(6-Fluoro-2-methyl-pyridin-3-yl)-3-methyl-8-(6-methylamino-5-trifluoromethyl-pyridin-3-yl)-1,3-dihydro-imidazo[4,5-c]quinolin-2-one] | 7.6 nM |

Other lines, results leading:

| IC50 | Structure (SMILES) |
| --- | --- |
| 31.1 nM | COc1ccc(-n2c(=O)n(C)c3cnc4ccc(-c5cnc(CO)c(OC)c5)cc4c32)c(C)n1 [Example 11.8, 8-(6-Hydroxymethyl-5-methoxy-pyridin-3-yl)-1-(6-methoxy-2-methyl-pyridin-3-yl)-3-methyl-1,3-dihydro-imidazo[4,5-c]quinolin-2-one] |
| 40.4 nM | COCCN(C)c1ccc(-n2c(=O)n(C)c3cnc4ccc(-c5cnc(CO)c(OC)c5)cc4c32)c(C)n1 [Example 15.9, 8-(6-Hydroxymethyl-5-methoxy-pyridin-3-yl)-1-{6-[(2-methoxy-ethyl)-methyl-amino]-2-methyl-pyridin-3-yl}-3-methyl-1,3-dihydro-imidazo[4,5-c]quinolin-2-one] |
| 11.2 nM | Cc1nc(N(C)C)ccc1-n1c(=O)n(C)c2cnc3ccc(-c4cncc(N)c4)cc3c21 [Example 19.5, 8-(5-Amino-pyridin-3-yl)-1-(6-dimethylamino-2-methyl-pyridin-3-yl)-3-methyl-1,3-dihydro-imidazo[4,5-c]quinolin-2-one] |
| 167 nM | COCC(=O)Nc1ccc(-n2c(=O)n(C)c3cnc4ccc(-c5cncc(OC(C)C)c5)cc4c32)c(C)n1 [Example 20.5, N-{5-[8-(5-Isopropoxy-pyridin-3-yl)-3-methyl-2-oxo-2,3-dihydro-imidazo[4,5-c]quinolin-1-yl]-6-methyl-pyridin-2-yl}-2-methoxy-acetamide] |
| 40.2 nM | COc1cc(-c2ccc3ncc4c(c3c2)n(-c2ccc(N(C)C)nc2C)c(=O)n4C)cnc1CO [Example 19.4, 1-(6-Dimethylamino-2-methyl-pyridin-3-yl)-8-(6-hydroxymethyl-5-methoxy-pyridin-3-yl)-3-methyl-1,3-dihydro-imidazo[4,5-c]quinolin-2-one] |
